According to patent US8772012B2 (Kabushiki Kaisha Toyota Chuo Kenkyusho, priority 2009, dated 2014):

Legend:
[1] = tested on: Xylose isomerase RsXIC1-O (RsXI-C1, SEQ ID NO: 2; codon optimized gene RsXIC1-O, SEQ ID NO: 45), intestinal protist of Reticulitermes speratus, expressed in …; test: Xylose isomerase kinetic analysis, crude yeast extract of W600W/pRS436GAP-RsXIC1-O (SDH-coupled NADH oxidation); type: biochemical
Procedure: (§1) The genes were synthesized by Genscript Corporation (www.Genscript.com) and Life Technologies Corporation (www.lifetechnologies.com), and the synthesized genes were named RsXIC1-O (SEQ ID NO: 45), PiXI-O (SEQ ID NO: 46) and CpXI-O (SEQ ID NO: 47), respectively.
(§2) The W600W/pRS436GAP-RsXIC1-O strain and W600W/pRS436GAP-PiXI-O strain were cultured for 24 hours in SD liquid medium, and the cells were collected and washed twice with sterile water, and then washed twice with 100 mM phosphate buffer (pH 7.0). After washing, glass beads (di 0.3 mm, Yasui Kikai) and 100 mM phosphate buffer (pH 7.0) were added to the yeast pellets, and a Multi-beads shocker (Yasui Kikai) was operated for 7 minutes at 4° C., 2500 rpm to disrupt the yeast cells. The resulting disrupted cell liquid was centrifuged for 5 minutes at 4° C., 12000 rpm, and the supernatant was collected as a crude yeast extract. The total protein concentration of the crude yeast extract was measured with a Quick Start protein assay kit (Bio-Rad).
(§3) The reaction was performed at 30° C., and NADH absorbancy changes were measured at a wavelength of 340 nm with a Ubest-55 spectrometer (Jasco).

[2] = target: Piromyces sp. E2 xylose isomerase PiXI-O (PiXI; codon optimized gene PiXI-O, SEQ ID NO: 46), expressed in yeast (Piromyces sp. E2, UniProt A0ACD6B9F5); test: Xylose isomerase kinetic analysis, crude yeast extract of W600W/pRS436GAP-PiXI-O (SDH-coupled NADH oxidation); type: biochemical
Procedure: as §1, §2, §3

[3] = tested on: Piromyces sp. E2 xylose isomerase PiXI, expressed in yeast; conditions: Non-patent Literature 1; cited from earlier work
[4] = tested on: Clostridium phytofermentans xylose isomerase CpXI (protein ID: YP_001558336), expressed in yeast; conditions: Non-patent Literature 1; cited from earlier work
[5] = xylose 5 to 250 mM, pH 7.5, 30° C., 10 mM MgCl2, crude yeast extract, Hanes-Woolf plot

Chain of Piromyces sp. E2 xylose isomerase PiXI-O (PiXI; codon optimized gene PiXI-O, SEQ ID NO: 46), expressed in yeast (A0ACD6B9F5 1-437): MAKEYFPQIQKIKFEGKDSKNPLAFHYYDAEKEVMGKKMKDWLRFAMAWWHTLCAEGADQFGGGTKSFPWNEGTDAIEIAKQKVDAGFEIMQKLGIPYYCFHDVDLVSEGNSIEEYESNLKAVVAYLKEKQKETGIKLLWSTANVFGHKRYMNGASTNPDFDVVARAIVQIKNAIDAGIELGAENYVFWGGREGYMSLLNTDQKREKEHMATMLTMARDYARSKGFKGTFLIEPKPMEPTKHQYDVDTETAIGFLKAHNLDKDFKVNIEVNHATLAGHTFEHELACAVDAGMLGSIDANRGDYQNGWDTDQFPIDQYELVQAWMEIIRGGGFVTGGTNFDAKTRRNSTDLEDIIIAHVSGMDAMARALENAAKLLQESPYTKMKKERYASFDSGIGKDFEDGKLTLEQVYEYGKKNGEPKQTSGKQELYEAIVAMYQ

With `OC1OC[C@@H](O)[C@H](O)[C@H]1O` (stereo partly shown) [xylose] the “Km value for RsXIC1-O relative to the value for PiXI-O” value ([1]; Km ratio RsXIC1-O vs PiXI-O) was “not more than ⅓”, the Km [1, 5] was 13.3 ± 2.02 mM and the Vmax [1, 5] was 0.054 ± 0.007 μmol/mg-protein. For the same molecule, the “maximum reaction velocity Vmax for PiXI-O relative to RsXIC1-O” value ([2]; Vmax ratio PiXI-O vs RsXIC1-O) was “about 1.5 times”, the Vmax [2, 5] was 0.078 ± 0.026 μmol/mg-protein and the Km [3] was 49.8 ± 2.82 mM. The Km [4] was 66 ± 1 mM.
